Assays:
Conditions in all cases: incubation time: 72 h
DU-4475 [1] = experiment: normalised response (% of control), CellTox Green; higher = less cell death (100 = DMSO, 0 = benzethonium chloride kill control)
In short: (§1)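 Breast cancer cell lines (20 µl suspension) were seeded into 384-well plates holding compound at 5 concentrations in 10-fold steps over a compound-specific 10,000-fold range, then incubated 72 h. CellTox Green fluorescence (485/520 nm) was read first, then CellTiter-Glo luminescence after 10 min at room temperature. Each plate was normalised to 0.1 % DMSO (100) and a positive kill control (0). Each value is the normalised signal at a single concentration of the series.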

BT-549 [2] = experiment: as above
In short: as §1

MCF-10A [3] = experiment: as above
In short: as §1

Hs578T [4] = experiment: as above
In short: as §1

CAL-148 [5] = experiment: as above
In short: as §1

HCC1599 [6] = experiment: as above
In short: as §1

MDA-MB-468 [7] = experiment: as above
In short: as §1

HCC1937 [8] = experiment: as above
In short: as §1

CAL-51 [9] = experiment: as above
In short: as §1

MDA-MB-436 [10] = experiment: as above
In short: as §1

CAL-120 [11] = experiment: as above
In short: as §1

MFM-223 [12] = experiment: as above
In short: as §1

HDQ-P1 [13] = experiment: as above
In short: as §1

MDA-MB-453 [14] = experiment: as above
In short: as §1

BT-474 [15] = experiment: as above
In short: as §1

MDA-MB-231 [16] = experiment: as above
In short: as §1

HCC1143 [17] = experiment: as above
In short: as §1

CAL-85-1 [18] = experiment: as above
In short: as §1

DU-4475 [19] = experiment: normalised response (% of control), CellTiter-Glo; higher = more viable cells (100 = DMSO, 0 = benzethonium chloride kill control)
Protocol: (§2)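 DSRT, 72 h incubation, CellTox Green / CellTiter-Glo readout. Signal is normalised to DMSO and benzethonium chloride controls. Value is the normalised response at the highest dose.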

BT-549 [20] = experiment: as above
Protocol: as §2

MCF-10A [21] = experiment: as above
Protocol: as §2

Hs578T [22] = experiment: as above
Protocol: as §2

CAL-148 [23] = experiment: as above
Protocol: as §2

HCC1599 [24] = experiment: as above
Protocol: as §2

MDA-MB-468 [25] = experiment: as above
Protocol: as §2

HCC1937 [26] = experiment: as above
Protocol: as §2

CAL-51 [27] = experiment: as above
Protocol: as §2

MDA-MB-436 [28] = experiment: as above
Protocol: as §2

CAL-120 [29] = experiment: as above
Protocol: as §2

MFM-223 [30] = experiment: as above
Protocol: as §2

HDQ-P1 [31] = experiment: as above
Protocol: as §2

MDA-MB-453 [32] = experiment: as above
Protocol: as §2

BT-474 [33] = experiment: as above
Protocol: as §2

MDA-MB-231 [34] = experiment: as above
Protocol: as §2

HCC1143 [35] = experiment: as above
Protocol: as §2

SK-BR-3 = experiment: as above
Protocol: as §2

CAL-85-1 [36] = experiment: as above
Protocol: as §2

Row | SMILES | normalised response (DU-4475 [1]) [%] | normalised response (BT-549 [2]) [%] | normalised response (MCF-10A [3]) [%] | normalised response (Hs578T [4]) [%] | normalised response (CAL-148 [5]) [%] | normalised response (HCC1599 [6]) [%] | normalised response (MDA-MB-468 [7]) [%] | normalised response (HCC1937 [8]) [%] | normalised response (CAL-51 [9]) [%] | normalised response (MDA-MB-436 [10]) [%] | normalised response (CAL-120 [11]) [%] | normalised response (MFM-223 [12]) [%] | normalised response (HDQ-P1 [13]) [%] | normalised response (MDA-MB-453 [14]) [%] | normalised response (BT-474 [15]) [%] | normalised response (MDA-MB-231 [16]) [%] | normalised response (HCC1143 [17]) [%] | normalised response (CAL-85-1 [18]) [%] | normalised response (DU-4475 [19]) [%] | normalised response (BT-549 [20]) [%] | normalised response (MCF-10A [21]) [%] | normalised response (Hs578T [22]) [%] | normalised response (CAL-148 [23]) [%] | normalised response (HCC1599 [24]) [%] | normalised response (MDA-MB-468 [25]) [%] | normalised response (HCC1937 [26]) [%] | normalised response (CAL-51 [27]) [%] | normalised response (MDA-MB-436 [28]) [%] | normalised response (CAL-120 [29]) [%] | normalised response (MFM-223 [30]) [%] | normalised response (HDQ-P1 [31]) [%] | normalised response (MDA-MB-453 [32]) [%] | normalised response (BT-474 [33]) [%] | normalised response (MDA-MB-231 [34]) [%] | normalised response (HCC1143 [35]) [%] | normalised response (SK-BR-3) [%] | normalised response (CAL-85-1 [36]) [%]
1 | CC[C@@]1(O)C(=O)OCc2c1cc1n(c2=O)Cc2cc3c(CN(C)C)c(O)ccc3nc2-1 [Topotecan] (10000 nM) | 60.8 | 56.9 | 55.5 | 102 | 7.1 | 71.7 | 29.5 | 18.6 | -18.1 | 29.1 | 49.3 | 43.5 | 69.8 | 85.1 | 88.4 | 46.1 | 87.9 | 42.3 | 0.66 | 22.1 | 39 | 55.2 | 0.39 | 9.36 | 4.47 | 15.3 | 15.2 | 21 | 37 | 61.7 | 54.5 | 33.2 | 47.8 | 43.1 | 26.9 | 19.6 | 21.6
2 | O=C(NC[C@H](O)CO)c1ccncc1Nc1ccc(I)cc1F [Pimasertib] (10000 nM) | 72.9 | 125 | 95.4 | 105 | 99.6 | 105 | 169 | 91 | 93.8 | 100 | 72.1 | 64.9 | 81.8 | 112 | 88.3 | 70.1 | 124 | 51.5 | 0.07 | 84.2 | 26.6 | 64.6 | 71.6 | 89.8 | 53.5 | 68.1 | 90.2 | 79.7 | 65.4 | 63 | 55.1 | 89.2 | 53 | 54 | 79.1 | 58.6 | 40.8
3 | Cc1cccc(-c2nn3c(c2-c2ccnc4ccc(C(N)=O)cc24)CCC3)n1 [Galunisertib] (1000 nM) | 108 | 109 | 103 | 112 | 105 | 112 | 121 | 116 | 98.5 |  | 99.3 | 102 | 108 | 98.8 | 103 | 127 | 127 | 68.4 | 108 | 95.7 | 90.8 | 106 | 118 | 108 | 101 | 101 | 91.8 | 112 | 105 | 108 | 105 | 106 | 99.6 | 98.3 | 105 | 116 | 110
4 | c1cc(CN2CCCNCCNCCCNCC2)ccc1CN1CCCNCCNCCCNCC1 [Plerixafor] (10000 nM) | 92.3 | 52.3 | 94.2 | 102 | 98.5 | 98.2 | 69.7 | 104 | 85.7 | 95.5 | 95.2 | 96.9 | 104 | 80.5 | 99.7 | 96 | 101 | 117 | 88.6 | 107 | 82.6 | 92.3 | 91.8 | 99.8 | 106 | 97.3 | 124 | 97.9 | 108 | 87.2 | 98.2 | 78.3 | 90.9 | 94.2 | 102 | 79.1 | 96
5 | Cn1cc(CNCC2CCN(c3ncc(C(=O)NO)cn3)CC2)c2ccccc21 [Quisinostat] (1000 nM) | 77.2 | 64.2 | 56.8 | 9.9 | -22.9 | 71.7 | 31.9 | 82 | -21.8 | 91.8 | -15.2 | 66.2 | 52.1 | 87.9 | 35.7 | -24.8 | 57.9 | -55.4 | 15.9 | 10.2 | 10.7 | 5.64 | 0.34 | 6.82 | 10.2 | 22.7 | 7.13 | 34.8 | 10.8 | 32.8 | 25.7 | 2.11 | 6.87 | 6.24 | 13.9 | 0.06 | 4.67
6 | CC(C)N(CCCNC(=O)Nc1ccc(C(C)(C)C)cc1)C[C@H]1O[C@@H](n2cc(Br)c3c(N)ncnc32)[C@H](O)[C@@H]1O [SGC0946] (10000 nM) | 98.7 | 95.8 | 79.5 |  | 93.7 | 81.6 | 115 | 94 | 101 | 75 | 97.4 | 89.3 | 99.1 | 91.9 | 85.2 | 71.9 | 100 | 114 | 94.3 | 92.3 | 101 | 101 | 82.6 | 78 | 70.7 | 84.2 | 94.1 | 93.8 | 102 | 81.2 | 87.2 | 69.3 | 88.1 | 74.7 | 91.4 | 73.5 | 83.1
7 | O=S(=O)(c1cccc2cnccc12)N1CCCNCC1 [Fasudil] (50000 nM) | 95.4 | 97.4 | 87.7 | 118 | 97.8 | 80.3 | 90.6 | 79.6 | 116 | 94.4 | 93.2 | 102 |  | 101 | 99.3 | 50.6 | 99.4 | 80.6 | 86.3 | 78.9 | 78.3 | 86.7 | 96.3 | 96.6 | 93.6 | 96.5 | 117 | 90.2 | 67.1 | 88.2 | 89 | 79.6 | 67.5 | 70.1 | 83.7 | 57 | 111
8 | CS(=O)(=O)N1CCN(Cc2cc3nc(-c4cccc5[nH]ncc45)nc(N4CCOCC4)c3s2)CC1 [Pictilisib] (10000 nM) |  | 102 | 79.4 | 98.8 | 47.1 | 103 | 155 | 91.4 | 48.2 | 116 | 105 | 56.4 | 85.4 | 92 | 47.1 | 118 | 120 | 50.2 | 81.4 | 25.6 | 18.4 | 31.3 | 15.6 | 64.9 | 26.4 | 32.3 | 8.84 | 43 | 34.3 | 28.2 | 19.9 | 13.4 | 50.6 | 48.8 | 26 | 22.2 | 27.8
9 | CC/C(=C(\c1ccc(O)cc1)c1ccc(OCCN(C)C)cc1)c1ccccc1 [4-hydroxytamoxifen] (10000 nM) | 92 | 68 | 75.6 |  | 73.9 | 82.9 | -1140 | -22.6 | 103 | 74.7 | 44.5 | 91.1 | 81.4 | 46.9 | 14.6 | 7.14 | 68 | 34 | 84 | 62.7 | 81.4 | 80.8 | 85 | 66.5 | 13.8 | 25.4 | 60.5 | 35 | 76.5 | 45.5 | 73.1 | 34.4 | 63 | 41.1 | 88.6 | 49.8 | 44.9
